Reference: patent publication US20230219965A1 (KSQ Therapeutics, Inc., priority 2020, published 2023)
Read-outs that look alike come from different tables or passages of the source.

Columns and labels:
[1] = Liver microsomal metabolic stability, rat liver microsomes (RLM); details: rat, liver microsomes, t1/2 (min) in RLM, 1 μM compound, 1 mg/mL microsomes, NADPH
USP1/UAF1 enzyme = USP1/UAF1 enzyme (Homo sapiens, UniProt O94782); assay: USP1/UAF1 deubiquitination assay (ubiquitin-rhodamine 110 substrate); format: biochemical; details: read-out: USP1 IC50 (Ub-Rho)
Outline: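 0.05 nM USP1/UAF1 was preincubated 10 min with compounds (dose response from 10 μM) in 50 mM Tris-HCl pH 7.8, 0.5 mM EDTA, 0.01% BSA, 1 mM DTT, 0.01% Tween-20. 150 nM ubiquitin-rhodamine 110 started the reaction, read kinetically 30 min at Ex480/Em540; IC50 by four-parameter fit versus no-enzyme and DMSO controls.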

[2] = tested on: Ub-PCNA levels in the nucleus of ES2 cells (USP1 activity); assay: ES2 Ub-PCNA immunofluorescence (IF) assay; format: cell-based; details: Homo sapiens, ES-2; ES2 cells, 3 hours, Ub-PCNA immunofluorescence; read-out: USP1 IC50 (Ub-PCNA)
Outline: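 Cells plated overnight, then compound-treated for 3 h at 37° C (0.3% DMSO final), methanol-fixed and stained with anti-Ub-PCNA plus DAPI. Per-nucleus Ub-PCNA intensity imaged; cells above the 95% cutoff of untreated wells counted as positive, and percent positive cells used to derive AC50.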

[3] = ADME solubility determination in PBS at pH 2.0 and pH 7.4; format: physicochemical; details: phosphate buffered saline, 25 °C, thermodynamic from solid
Outline: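 Dried 10 mM DMSO stock residues taken up in PBS pH 7.4 or pH 2.0, shaken 24 h at 25° C. After centrifugation, supernatant quantified by LC-MS/MS against a standard of known concentration, with a dilution factor applied.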

[4] = Liver microsomal metabolic stability, human liver microsomes (HLM); details: human, liver microsomes
[5] = pH 2, aqueous buffer, PBS pH 2.0, 25° C., read-out: Solubility at pH 2.0
[6] = pH 7.4, aqueous buffer, PBS pH 7.4, 25° C., read-out: Solubility at pH 7.4

USP1/UAF1 enzyme, sequence (O94782 whole entry): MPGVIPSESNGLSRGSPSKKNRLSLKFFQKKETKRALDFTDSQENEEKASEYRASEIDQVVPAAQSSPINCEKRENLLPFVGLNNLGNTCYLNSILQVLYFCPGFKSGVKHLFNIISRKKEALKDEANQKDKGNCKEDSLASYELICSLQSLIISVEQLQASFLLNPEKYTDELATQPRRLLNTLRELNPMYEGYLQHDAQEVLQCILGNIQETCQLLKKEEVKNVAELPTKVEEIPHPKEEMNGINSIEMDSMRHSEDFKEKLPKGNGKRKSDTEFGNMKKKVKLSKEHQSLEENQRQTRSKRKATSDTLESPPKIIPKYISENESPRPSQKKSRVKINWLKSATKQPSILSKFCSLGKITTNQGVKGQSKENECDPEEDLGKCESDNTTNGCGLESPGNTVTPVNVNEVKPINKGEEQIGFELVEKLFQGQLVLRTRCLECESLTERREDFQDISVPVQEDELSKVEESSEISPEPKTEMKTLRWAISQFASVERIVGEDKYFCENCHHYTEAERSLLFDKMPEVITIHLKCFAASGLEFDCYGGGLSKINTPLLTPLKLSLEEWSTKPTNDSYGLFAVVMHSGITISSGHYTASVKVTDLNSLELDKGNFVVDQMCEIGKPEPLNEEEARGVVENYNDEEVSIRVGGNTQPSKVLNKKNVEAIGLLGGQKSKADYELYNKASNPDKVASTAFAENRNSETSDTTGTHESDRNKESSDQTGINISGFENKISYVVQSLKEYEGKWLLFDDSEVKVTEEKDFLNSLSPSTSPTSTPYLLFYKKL
USP1/UAF1 enzyme, sequence (Q8TAF3 whole entry partner): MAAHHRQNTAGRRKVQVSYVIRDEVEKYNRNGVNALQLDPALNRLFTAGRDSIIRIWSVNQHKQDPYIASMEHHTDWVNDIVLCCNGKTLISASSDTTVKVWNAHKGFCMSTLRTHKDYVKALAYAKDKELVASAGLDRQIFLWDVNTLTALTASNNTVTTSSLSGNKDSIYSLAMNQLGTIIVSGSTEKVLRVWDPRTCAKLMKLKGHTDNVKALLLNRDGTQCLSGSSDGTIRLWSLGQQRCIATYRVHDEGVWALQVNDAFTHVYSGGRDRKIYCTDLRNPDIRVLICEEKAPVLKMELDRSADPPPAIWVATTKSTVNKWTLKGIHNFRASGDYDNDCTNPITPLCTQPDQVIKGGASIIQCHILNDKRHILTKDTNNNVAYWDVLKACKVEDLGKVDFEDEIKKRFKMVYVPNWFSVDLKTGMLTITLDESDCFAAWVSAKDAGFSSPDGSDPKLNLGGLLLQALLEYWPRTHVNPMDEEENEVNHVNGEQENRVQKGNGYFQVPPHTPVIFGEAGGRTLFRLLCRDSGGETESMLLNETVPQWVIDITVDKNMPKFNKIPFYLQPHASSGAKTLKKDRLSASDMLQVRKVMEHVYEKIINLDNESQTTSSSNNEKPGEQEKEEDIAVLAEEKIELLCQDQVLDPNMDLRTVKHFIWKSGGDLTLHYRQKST

half-life at 1 μM [1] [min]	IC50 (USP1/UAF1 enzyme) [µM]	IC50 [2] [µM]	solubility at 24 h [3, 5] [µM]	solubility at 24 h [3, 6] [µM]	half-life at 1 μM [4] [min]	SMILES
> 25	< 0.1	< 0.1	≥ 10	≥ 10	> 25	CCn1cc(C(F)(F)F)nc1-c1ccc(C(C)n2c(=O)ccn3nc(-c4c(OC)ncnc4C4CC4)nc23)cc1 (stereo not drawn) [Example 340, 2-(4-cyclopropyl-6-methoxypyrimidin-5-yl)-4-(1-(4-(1-ethyl-4-(trifluoromethyl)-1H-imidazol-2-yl)phenyl)ethyl)-[1,2,4]triazolo[1,5-a]pyrimidin-5(4H)-one]
> 25	< 0.1	< 0.1	< 10	< 10	> 25	CCn1cc(C(F)(F)F)nc1-c1ccc(Cn2c(=O)ccn3nc(-c4c(Cl)cnn4C(C)C)nc23)cc1F [Example 343, 2-(4-chloro-1-isopropyl-1H-pyrazol-5-yl)-4-(4-(1-ethyl-4-(trifluoromethyl)-1H-imidazol-2-yl)-3-fluorobenzyl)-[1,2,4]triazolo[1,5-a]pyrimidin-5(4H)-one]
> 25	< 0.1	< 0.1	< 10	< 10	> 25	CCn1cc(C(F)(F)F)nc1-c1ccc(Cn2c(=O)ccn3nc(-c4c(OC(F)F)ncnc4C4CC4)nc23)cc1 [Example 345]
> 25	< 0.1	< 0.1	< 10	< 10	> 25	COc1ncnc(C2CC2)c1-c1nc2n(Cc3ccc(-c4nc(C(F)(F)F)cn4C(C)C)c(F)c3OC)c(=O)ccn2n1 [Example 346, 2-(4-cyclopropyl-6-methoxypyrimidin-5-yl)-4-(3-fluoro-4-(1-isopropyl-4-(trifluoromethyl)-1H-imidazol-2-yl)-2-methoxybenzyl)-[1,2,4]triazolo[1,5-a]pyrimidin-5(4H)-one]
> 25	< 0.1	< 0.1	≥ 10	≥ 10	> 25	CCn1cc(C(F)(F)F)nc1-c1ccc(CN2C(=O)C(C)Cn3nc(-c4c(OC)ncnc4C4CC4)nc32)cc1F (stereo not drawn) [Example 347, 2-(4-cyclopropyl-6-methoxypyrimidin-5-yl)-4-(4-(1-ethyl-4-(trifluoromethyl)-1H-imidazol-2-yl)-3-fluorobenzyl)-6-methyl-6,7-dihydro-[1,2,4]triazolo[1,5-α]pyrimidin-5(4H)-one]
> 25	< 0.1	< 0.1	< 10	< 10	> 25	CCn1cc(C(F)(F)F)nc1-c1ccc(CN2C(=O)C(C)Cn3nc(-c4c(Cl)cnn4C(C)C)nc32)cc1F (stereo not drawn) [Example 350, 2-(4-chloro-1-isopropyl-1H-pyrazol-5-yl)-4-(4-(1-ethyl-4-(trifluoromethyl)-1H-imidazol-2-yl)-3-fluorobenzyl)-6-methyl-6,7-dihydro-[1,2,4]triazolo[1,5-a]pyrimidin-5(4H)-one]
> 25	< 0.1	< 0.1	< 10	< 10	> 25	CCn1cc(C(F)(F)F)nc1-c1ccc(CN2C(=O)C(C)Cn3nc(-c4c(OC(F)F)ncnc4C4CC4)nc32)cc1F (stereo not drawn) [Example 351, 2-(4-cyclopropyl-6-(difluoromethoxy)pyrimidin-5-yl)-4-(4-(1-ethyl-4-(trifluoromethyl)-1H-imidazol-2-yl)-3-fluorobenzyl)-6-methyl-6,7-dihydro-[1,2,4]triazolo[1,5-a]pyrimidin-5(4H)-one]
